Test results published in patent US6395684B1, “Selective herbicides based on a substituted phenyl sulfonyl amino carbonyl triazolinone” (Bayer Aktiengesellschaft, priority 1998, dated 2002).
Structures can show the parent of a compound that is named as a salt.

Legend:
Type in all cases: in vivo
Agropyron [1] = experiment: Post-emergence test/greenhouse; settings: 60 g ai./ha, greenhouse, after three weeks
Method: (§1) Post-emergence Test/greenhouse Solvent: 5 parts by weight of acetone Emulsifier: 1 part by weight of alkylaryl polyglycol ether To produce a suitable preparation of active compound, 1 part by weight of active compound is mixed with the stated amount of solvent, the stated amount of emulsifier is added and the concentrate is diluted with water to the desired concentration. Test plants which have a height of 5-15 cm are sprayed with the preparation of active compound such that the particular amounts of active compound desired are applied per unit area. The concentration of the spray liquor is chosen so that the particular amounts of active compound desired are applied in 500 l of water/ha. After three weeks, the degree of damage to the plants is assessed in % damage in comparison to the development of the untreated control. The figures denote: 0%=no effect (like untreated control) 100% total destruction

Alopecurus [2] = experiment: Post-emergence test/greenhouse; settings: 60 g ai./ha, greenhouse, after three weeks
Method: as §1

Avena [3] = experiment: Post-emergence test/greenhouse; settings: 60 g ai./ha, greenhouse, after three weeks
Method: as §1

Bromus [4] = experiment: Post-emergence test/greenhouse; settings: 60 g ai./ha, greenhouse, after three weeks
Method: as §1

Lolium [5] = experiment: Post-emergence test/greenhouse; settings: 60 g ai./ha, greenhouse, after three weeks
Method: as §1

Wheat [6] = experiment: Post-emergence test/greenhouse; settings: greenhouse
Method: as §1

Agropyron [7] = experiment: Pre-emergence test/greenhouse; settings: 15 g ai./ha, greenhouse, after three weeks
Method: (§2) Pre-emergence Test/greenhouse Solvent: 5 parts by weight of acetone Emulsifier: 1 part by weight of alkylaryl polyglycol ether To produce a suitable preparation of active compound, 1 part by weight of active compound is mixed with the stated amount of solvent, the stated amount of emulsifier is added and the concentrate is diluted with water to the desired concentration. Seeds of the test plants are sown in normal soil. After about 24 hours, the soil is sprayed with the preparation of active compound such that the particular amount of active compound desired is applied per unit area. The concentration of the spray liquor is chosen so that the particular amount of active compound desired is applied in 500 litres of water per hectare. After three weeks, the degree of damage to the plants is tested in % damage in comparison to the development of the untreated control. The figures denote: 0% no effect (like untreated control) 100%=total destruction

Alopecurus [8] = experiment: Pre-emergence test/greenhouse; settings: greenhouse, after three weeks
Method: as §2

Amaranthus = experiment: Pre-emergence test/greenhouse; settings: 15 g ai./ha, greenhouse, after three weeks
Method: as §2

Avena [9] = experiment: Pre-emergence test/greenhouse; settings: greenhouse, after three weeks
Method: as §2

Bromus [10] = experiment: Pre-emergence test/greenhouse; settings: greenhouse, after three weeks
Method: as §2

Lolium [11] = experiment: Pre-emergence test/greenhouse; settings: 30 g ai./ha, greenhouse, after three weeks
Method: as §2

Poa = experiment: Pre-emergence test/greenhouse; settings: 15 g ai./ha, greenhouse, after three weeks
Method: as §2

Setaria = experiment: Pre-emergence test/greenhouse; settings: 30 g ai./ha, greenhouse, after three weeks
Method: as §2

Sinapis = experiment: Pre-emergence test/greenhouse; settings: 15 g ai./ha, greenhouse, after three weeks
Method: as §2

Wheat [12] = experiment: Pre-emergence test/greenhouse; settings: greenhouse; for degree of damage to the plants (% damage in comparison to the untreated control): Wheat, after three weeks
Method: as §2

Bromus secalinus = experiment: Post-emergence tests/outdoors (Example D, USA); settings: 42 g a.i./ha to 45 g a.i./ha, post-emergence (autumn), outdoors, winter wheat, with surface-active substances (SAS), 24 tests
Method: (§3) The active compound was applied by the post-emergence method (spring) across the area by the spray method, with an average droplet size. To produce a useful preparation of active compound, the active compound was formulated as 70 WP or 70 WG (70% w/w water-dispersible powder or granules) and applied with customary amounts of water. To assess the crop compatibility, from 1 to 8 weeks after the treatment, plant growth inhibitions or […] of the leaf area were assessed in % damage in comparison to the development of the untreated control. At different intervals after the treatment, the herbicidal activity was assessed as % reduction in comparison to the untreated control, based on the weed development. The figures denote: 0%=no damage of the crops or no herbicidal effect, 100%=total destruction of the crops or the weeds. Post-emergence Tests/outdoors The sodium salt of the compound of the formula (I) was tested under outdoor conditions in the main cultivation areas of winter wheat in the USA (Pacific Northwest, North Central Area, Central Plains) against economically important weeds. The design, the practice and the evaluation of the experiments corresponded to Example C. The active compound was applied in autumn. Wetting of the plants was improved by addition of commercial surface-active substances (SAS) in the concentrations recommended by the respective manufacturer.

Bromus tectorum = experiment: Post-emergence tests/outdoors (Example D, USA); settings: 42 g a.i./ha to 45 g a.i./ha, post-emergence (autumn), outdoors, winter wheat, with surface-active substances (SAS), 37 tests
Method: as §3

Erysimum cheiranthoides = experiment: Post-emergence tests/outdoors (Example D, USA); settings: 42 g a.i./ha to 45 g a.i./ha, post-emergence (autumn), outdoors, winter wheat, with surface-active substances (SAS), 10 tests
Method: as §3

Thlaspi arvense = experiment: Post-emergence tests/outdoors (Example D, USA); settings: 42 g a.i./ha to 45 g a.i./ha, post-emergence (autumn), outdoors, winter wheat, with surface-active substances (SAS), 7 tests
Method: as §3

Phalaris minor = experiment: Post-emergence test/outdoors (Example E, California); settings: 42 g a.i./ha to 45 g a.i./ha, + SAS, outdoors, irrigation wheat growing area, 2 tests
Phalaris paradoxa = experiment: as above; settings: 42 g a.i./ha to 45 g a.i./ha, + SAS, outdoors, irrigation wheat growing area, 8 tests
Wheat [13] = experiment: Post-emergence test/outdoors (Example E, California), crop compatibility; settings: 42 g a.i./ha to 45 g a.i./ha, + SAS, outdoors, 7 tests

`CCCOc1nn(C(=O)NS(=O)(=O)c2ccccc2C(=O)OC)c(=O)n1C` [(I)-Na-salt, 2-(2-methoxycarbonyl-phenylsulphonylaminocarbonyl)-4-methyl-5-propoxy-2,4-dihydro-3H-1,2,4-triazol-3-one] was tested, and the “degree of damage to the plants (% damage in comparison to the untreated control)” value (Agropyron [1]) was 100%, the “degree of damage to the plants (% damage in comparison to the untreated control)” value (Alopecurus [2]) was 90% and the “degree of damage to the plants (% damage in comparison to the untreated control)” value (Avena [3]) was 80%. For the same compound, the “degree of damage to the plants (% damage in comparison to the untreated control)” value (Bromus [4]) was 95%, the “degree of damage to the plants (% damage in comparison to the untreated control)” value (Lolium [5]) was 80% and the “degree of damage to the plants (% damage in comparison to the untreated control)” value (Wheat [6]; Wheat, 60 g ai./ha, after three weeks) was 0%. The “compatibility with crop plants (wheat), in words” value (Wheat [6]; sodium salt of (I) at 60 g/ha) was “very good compatibility”, the “degree of damage to the plants (% damage in comparison to the untreated control)” value (Agropyron [7]) was 90% and the “degree of damage to the plants (% damage in comparison to the untreated control)” value (Alopecurus [8]; 15 g ai./ha) was 95%. For the same compound, the “degree of damage to the plants (% damage in comparison to the untreated control)” value (Alopecurus [8]; 30 g ai./ha) was 95%, the “degree of damage to the plants (% damage in comparison to the untreated control)” value (Amaranthus) was 95% and the “degree of damage to the plants (% damage in comparison to the untreated control)” value (Avena [9]; 15 g ai./ha) was 80%. For the same compound, the “degree of damage to the plants (% damage in comparison to the untreated control)” value (Avena [9]; 30 g ai./ha) was 90%, the “degree of damage to the plants (% damage in comparison to the untreated control)” value (Bromus [10]; 15 g ai./ha) was 90% and the “degree of damage to the plants (% damage in comparison to the untreated control)” value (Bromus [10]; 30 g ai./ha) was 90%. For the same compound, the “degree of damage to the plants (% damage in comparison to the untreated control)” value (Lolium [11]) was 80%, the “degree of damage to the plants (% damage in comparison to the untreated control)” value (Poa) was 90% and the “degree of damage to the plants (% damage in comparison to the untreated control)” value (Setaria) was 90%. For the same compound, the “degree of damage to the plants (% damage in comparison to the untreated control)” value (Sinapis) was 90%, the “degree of damage to the plants (% damage in comparison to the untreated control)” value (Wheat [12]; 15 g ai./ha) was 0% and the “degree of damage to the plants (% damage in comparison to the untreated control)” value (Wheat [12]; 30 g ai./ha) was 0%. For the same compound, the “compatibility with crop plants (wheat), in words” value (Wheat [12]; sodium salt of (I) at 15 g/ha to 60 g/ha) was “very good compatibility”, the “herbicidal effect (%)” value (Bromus secalinus) was 95% and the “herbicidal effect (%)” value (Bromus tectorum) was 90%. The “herbicidal effect (%)” value (Erysimum cheiranthoides) was 89%, the “herbicidal effect (%)” value (Thlaspi arvense) was 100% and the “herbicidal effect (%)” value (Phalaris minor) was 93%. For the same compound, the “herbicidal effect (%)” value (Phalaris paradoxa) was 99% and the “Damage to the crop (wheat)” value (Wheat [13]) was 5%.
